Measured values published in patent publication US10058563B2, “System and method for diagnosis and treatment” (Pop Test Oncology Limited Liability Company, priority 2011, dated 2018).
≈ marks a conversion by molar mass, not a printed value. Like-named read-outs stand apart in the source and are kept apart here.

How the values were obtained:
[1] = disclosed in U.S. Pat. No. 6,011,025; cited from earlier work
[2] = Behaviour in conventional dosage forms (capsule or tablet); type: in vivo; details: like a capsule or a tablet
Excerpt: Another dosage form than a conventional tablet or capsule may be able to circumvent these issues.

[3] = test system: TNBC (Triple Negative Breast Cancer; MDA-MB-231) cells; experiment: Xenografted breast tumor growth, ORG 34517 plus Taxol (Example 1); type: in vivo, CB-17 SCID mice; details: for relative tumor growth: N=3, control Veh/Veh 379%
Procedure: This study is performed to obtain evidence for enhancement of chemotherapy sensitivity of GR+/ER−/PR−/Her2-neu− breast cancer cells by blocking stress-mediated cell survival pathways with a GR antagonist. In the present pilot study, the GR antagonist ORG 34517, is investigated, in one dose, in combination with the chemotherapeutic agent Taxol. Both the Taxol and ORG 34517 doses are selected based on previous experiments.
Materials and Methods—1×107 TNBC (Triple Negative Breast Cancer; MDA-MB-231) cells in 50 ul of PBS (phosphate buffered saline) are injected into the mammary fat pad of 4-5 week old CB-17 SCID mice (Taconic Labs). The mice are allowed to form xenografted breast tumors of approximately 200 mm3 volume. When tumors reach an average of 200 mm3 (Week “0”), 15 mice are separated into the 3 treatment groups 1) vehicle, 2) paclitaxel (Taxol), 3) ORG 34517+ paclitaxel. The used paclitaxel dose is 10 mg/kg/day dissolved in Ethanol/Sesame Oil; ORG 34517 is administered in the maximum soluble dose of 20.5 mg/kg/day dissolved in Ethanol/Castor Oil. The mice receive intraperitoneal injections (200 ul) of drugs for 5 consecutive days (day 1-5). Tumors are measured three times per week. Tumor size is both expressed as absolute volume and as relative growth in comparison to baseline (day 0).
Results—Treatment of the animals is started when the tumor has a volume of at least 100 mm3. The total experimental group consisted of 15 animals. In 6 animals the tumor growth was considered not sufficient. […] In the control situation the tumor grows within 13 days with about 800 mm3 (see raw data). To correct for baseline differences, for each animal the relative tumor growth is calculated. Relative growth is defined as (tumor size day x−tumor size day 0)/tumor size day 0. Group averages for the relative tumor growth are depicted in FIG. 1. In the control condition (VehlVeh) the relative growth is 379%. […] A further reduction of the growth is induced by the addition of ORG 34517 (517/Taxo). The relative growth of this latter group is 100%.
A repeated measures ANOVA did reveal a significant time-effect (F5,36)=2.73; p=0.035), a significant treatment effect (F(2,36)=26.86; p=0.000) and a significant interaction (F(10,36)=2.36; p=0.029). […] This statistical analysis should be considered explorative because of the pilot nature of the study.

[4] = Solubility in different solvents; type: physicochemical
Procedure: The solubility of (11β,17β)-11-(1,3-benzodioxol-5-yl)-17-hydroxy-17-(1-propynyl)estra-4,9-dien-3-one is determined in different solvents. These solutions can be of use for clinical treatment with the advantages as mentioned above.

[5] = all phase I and phase II clinical trials performed with the compound; cited from earlier work
[6] = test system: ER-GR+ human breast cancer cells; experiment: Tumor volume in mice implanted with ER-GR+ breast cancer cells (Example 2); type: in vivo; details: i.p. vehicle alone vs Paclitaxel alone vs Paclitaxel and ORG 34517; 3 mice per group
Excerpt: As tumor volume in each mouse approached the test threshold of 200 mm3, the mice were randomized to receive intraperitoneal injections of vehicle alone, chemotherapy (Paclitaxel) alone, and chemotherapy and ORG 34517. Each group contained 3 mice.
Mice were implanted with cultured ER-GR+ human breast cancer cells. As tumor volume in each mouse approached the test threshold of 200 mm3, the mice were randomized to receive intraperitoneal injections of vehicle alone, chemotherapy (Paclitaxel) alone, and chemotherapy and ORG 34517. Each group contained 3 mice.

[7] = test system: mineralocorticoid, progesterone, estrogen and androgen receptors; details: such as those for estrogen and progesterone; cited from earlier work
glucocorticoid receptor = molecular target: T1, glucocorticoid receptor (Homo sapiens, UniProt P04150); details: disclosed in U.S. Pat. No. 6,011,025; cited from earlier work
T1 sequence (P04150 1-777): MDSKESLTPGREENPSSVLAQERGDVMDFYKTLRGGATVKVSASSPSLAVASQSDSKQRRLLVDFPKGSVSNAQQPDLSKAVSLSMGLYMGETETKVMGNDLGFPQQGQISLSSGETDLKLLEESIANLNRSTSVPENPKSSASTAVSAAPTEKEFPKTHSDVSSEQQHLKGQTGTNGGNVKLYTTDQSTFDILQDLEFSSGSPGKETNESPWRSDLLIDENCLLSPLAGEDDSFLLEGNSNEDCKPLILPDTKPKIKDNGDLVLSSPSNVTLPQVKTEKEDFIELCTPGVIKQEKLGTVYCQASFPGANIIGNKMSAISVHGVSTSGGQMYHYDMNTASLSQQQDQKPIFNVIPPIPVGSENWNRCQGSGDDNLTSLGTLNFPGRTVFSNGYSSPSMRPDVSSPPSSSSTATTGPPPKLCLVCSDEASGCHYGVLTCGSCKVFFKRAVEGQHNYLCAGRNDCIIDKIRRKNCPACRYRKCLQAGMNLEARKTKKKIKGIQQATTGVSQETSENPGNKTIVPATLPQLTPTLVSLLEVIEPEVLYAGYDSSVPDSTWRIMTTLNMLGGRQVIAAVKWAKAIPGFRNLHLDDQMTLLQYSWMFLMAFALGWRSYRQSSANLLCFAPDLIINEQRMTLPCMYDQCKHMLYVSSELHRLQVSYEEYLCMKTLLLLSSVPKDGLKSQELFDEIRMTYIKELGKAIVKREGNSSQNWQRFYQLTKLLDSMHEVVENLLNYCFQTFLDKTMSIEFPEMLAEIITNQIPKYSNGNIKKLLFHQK

CC#C[C@]1(O)CC[C@H]2[C@@H]3CCC4=CC(=O)CCC4=C3[C@@H](c3ccc4c(c3)OCO4)C[C@@]21C [ORG 34517, (11β,17β)-11-(1,3-benzodioxol-5-yl)-17-hydroxy-17-(1-propynyl) estra-4,9-dien-3-one]
androgenic and progestagenic activities [1]: low | exposure behaviour [2]: low exposure, high dose variability, large food effect and non-dose linearity | tumor growth in comparison to Veh/Taxo treatment ([3]; 517/Taxo, all three animals, individual scores): decreased tumor growth | relative tumor growth ([3]; ORG 34517 20.5 mg/kg/day + Taxol 10 mg/kg/day i.p. day 1-5 (517/Taxo)): 100% | animals with tumor shrinkage during treatment ([3]; ORG 34517 20.5 mg/kg/day + Taxol 10 mg/kg/day i.p. for 5 days): 2 out of 3 | effect on the chemotherapeutic effect of Taxol ([3]; ORG 34517 i.p. 20.5 mg/kg/day for 5 days): potentiated the chemotherapeutic effect of Taxol | solubility ([4]; Arachis oil): 2.46 mg/g | solubility ([4]; Benzylalcohol): 390 mg/g | solubility ([4]; Castor oil): 7.38 mg/g | solubility ([4]; Castor oil:benzylbenzoate (90:10)): 15.0 mg/g | solubility ([4]; Castor oil:propylene glycol laurate (0.55:0.45; v:v)): 9.4 mg/g | solubility ([4]; Corn oil): 2.58 mg/g | solubility ([4]; Cremophor EL): 23 mg/g | solubility ([4]; Gelicure 44/14, oil or lipid, read-out: Solubility): 100000 µg/mL (≈ 232000 µM) | solubility ([4]; Glucofurol:water (50:50), aqueous with cosolvent or surfactant or cyclodextrin, read-out: Solubility): 700 µg/mL (≈ 1630 µM) | solubility ([4]; Glycoferol, organic solvent or mixture, read-out: Solubility): 118000 µg/mL (≈ 274000 µM) | solubility ([4]; HPβCD, 10% in water, aqueous with cosolvent or surfactant or cyclodextrin, read-out: Solubility): 207 µg/mL (≈ 481 µM) | solubility ([4]; HPβCD, 20% in water, aqueous with cosolvent or surfactant or cyclodextrin, read-out: Solubility): 395 µg/mL (≈ 917 µM) | solubility ([4]; HPβCD, 40% in water, aqueous with cosolvent or surfactant or cyclodextrin, read-out: Solubility): 800 µg/mL (≈ 1860 µM) | solubility ([4]; Medium Chain monoglyceride/glycerol monocaprylate): 28 mg/g | solubility ([4]; Miglyol 812): 4.5 mg/g | solubility ([4]; Mulgofen:water (5:95), aqueous with cosolvent or surfactant or cyclodextrin, read-out: Solubility): 2000 µg/mL (≈ 4650 µM) | solubility ([4]; Olive oil): 2.26 mg/g | solubility ([4]; PEG 400, organic solvent or mixture, read-out: Solubility): 34400 µg/mL (≈ 79900 µM) | solubility ([4]; PEG 400:water (60:40), aqueous with cosolvent or surfactant or cyclodextrin, read-out: Solubility): 0.6 µg/mL (≈ 1.39 µM) | solubility ([4]; PEG 1500, organic solvent or mixture, read-out: Solubility): 37000 µg/mL (≈ 85900 µM) | solubility ([4]; Polysorbate in water (0.5%)): <LOD | solubility ([4]; Soy oil): 2.70 mg/g | solubility ([4]; Span 80): 7 mg/g | solubility ([4]; TPGS:PEG 400:propyleneglycol (12:17:55), organic solvent or mixture, read-out: Solubility): 700 µg/mL (≈ 1630 µM) | solubility ([4]; TPGS:PEG 400:propyleneglycol (20:60:5), organic solvent or mixture, read-out: Solubility): 900 µg/mL (≈ 2090 µM) | solubility ([4]; acetone, organic solvent or mixture, read-out: Solubility): > 10000 µg/mL | solubility ([4]; acetonitrile, organic solvent or mixture, read-out: Solubility): > 10000 µg/mL | solubility ([4]; aqueous with cosolvent or surfactant or cyclodextrin, TPGS:d-Alpha Tocopheryl Polyethylene Glycol 1000 Succinate (20%, as delivered), read-out: Solubility): 1100 µg/mL (≈ 2550 µM) | solubility ([4]; dimethylsulfoxide, organic solvent or mixture, read-out: Solubility): > 100000 µg/mL | solubility ([4]; dog bile:phosphate buffer (1:1), plasma or biological fluid, Dog bile:phosphate buffer (pH = 6.5) (1:1), read-out: Solubility): ~80 µg/mL (≈ 186 µM) | solubility ([4]; ethanol, organic solvent or mixture, read-out: Solubility): > 10000 µg/mL | solubility ([4]; ethanol:PEG 400:propylene glycol (10:50:40), organic solvent or mixture, read-out: Solubility): 28600 µg/mL (≈ 66400 µM) | solubility ([4]; ethanol:PEG 400:propylene glycol:water (10:40:40:10), aqueous with cosolvent or surfactant or cyclodextrin, read-out: Solubility): 14000 µg/mL (≈ 32500 µM) | solubility ([4]; methanol, organic solvent or mixture, read-out: Solubility): > 10000 µg/mL | solubility ([4]; propylene glycol, organic solvent or mixture, read-out: Solubility): 8900 µg/mL (≈ 20700 µM) | solubility ([4]; water with sodium lauryl sulphate 0.5% w/v, aqueous with cosolvent or surfactant or cyclodextrin, Water-Sodium lauryl sulphate (0.5% w/v), read-out: Solubility): 240 µg/mL (≈ 557 µM) | solubility ([4]; water with sodium lauryl sulphate 1.0% w/v, aqueous with cosolvent or surfactant or cyclodextrin, Water-Sodium lauryl sulphate (1.0% w/v), read-out: Solubility): 377 µg/mL (≈ 876 µM) | solubility ([4]; water, read-out: Solubility): 3 µg/mL (≈ 6.97 µM) | significant toxicities and side effects [5]: none were identified | attained tumor volume [6]: significant differences in attained tumor volume | cross-binding to other related steroidal hormone receptors [7]: without significant cross-binding | glucocorticoid receptor binding affinity (glucocorticoid receptor): high

CC(=O)O[C@H]1C(=O)[C@@]2(C)[C@H]([C@H](OC(=O)c3ccccc3)[C@]3(O)C[C@H](OC(=O)[C@H](O)[C@@H](NC(=O)c4ccccc4)c4ccccc4)C(C)=C1C3(C)C)[C@]1(OC(C)=O)CO[C@@H]1C[C@@H]2O [Taxol, paclitaxel, reference compound]
relative tumor growth ([3]; Taxol 10 mg/kg/day i.p. day 1-5 (Veh/Taxo)): 183% | effect on tumor growth ([3]; Taxol injections alone): reduced the tumor growth
